# Counter-ions that a name gives are not always drawn.
# Experiments:
# [1] = Plasma protein binding by equilibrium dialysis (RED), human plasma; type: in vitro ADME; settings: equilibrium dialysis 37 °C 4 h, mean ± SD (n = 3), read-out: fu (%) plasma protein binding
# Description: (§1) The nonspecific binding of KB-1517 and KB-1518 in human and mouse plasma and liver S9 fractions was determined by equilibrium dialysis using a Rapid Equilibrium Device (RED) system (Thermo Fisher Scientific, Seoul, Republic of Korea).
# (§2) Working solutions (200 μM for plasma, 60 μM for S9 fractions) were prepared in 40% aqueous acetonitrile. These were diluted 20-fold into either plasma or S9 incubation buffer (1 mg/mL protein, 200 mM Tris-HCl, 2 mM MgCl2, pH 7.4) to create the final dosing solutions.
# (§3) For the dialysis, RED inserts (8 kDa MWCO) were used. Into each device, 200 μL of a dosing solution was added to the sample chamber, and 350 μL of PBS was added to the buffer chamber. The plate was sealed and incubated at 37 °C for 4 h on an orbital shaker (100 rpm) to allow the system to reach equilibrium.
# (§4) Following incubation, 50 μL aliquots were taken from both chambers. To ensure analytical consistency, the samples were matrix-matched: the sample chamber aliquot was mixed with 50 μL of PBS, and the buffer chamber aliquot was mixed with 50 μL of the corresponding blank matrix (plasma or S9 incubation buffer). Proteins were then precipitated by adding 200 μL of ice-cold acetonitrile containing diclofenac (1 μg/mL) as IS. The samples were subsequently vortexed, sonicated for 5 min, and centrifuged at 4000× g for 20 min. Finally, a 100 μL aliquot of the resulting supernatant was diluted with 100 μL of HPLC-grade water in a 96-well plate for subsequent LC-MS/MS analysis.
# [2] = Plasma protein binding by equilibrium dialysis (RED), mouse plasma; type: in vitro ADME; settings: male, ICR, equilibrium dialysis 37 °C 4 h, mean ± SD (n = 3), read-out: fu (%) plasma protein binding
# Description: as §1, §2, §3, §4
# [3] = Binding in human liver S9 fraction by equilibrium dialysis (RED); type: in vitro ADME; settings: human, liver S9 fraction, pH 7.4, human liver S9, 1 mg/mL protein, equilibrium dialysis 37 °C 4 h, mean ± SD (n = 3); read-out: fu (%) in liver S9 fractions
# Description: as §1, §2, §3, §4
# [4] = Binding in mouse liver S9 fraction by equilibrium dialysis (RED); type: in vitro ADME; settings: ICR, mouse, liver S9 fraction, pH 7.4, mouse liver S9, 1 mg/mL protein, equilibrium dialysis 37 °C 4 h, mean ± SD (n = 3); read-out: fu (%) in liver S9 fractions
# Description: as §1, §2, §3, §4
# [5] = Metabolite identification in liver S9 incubations; type: in vitro ADME; settings: S9 1 mg protein/mL, 60 min, 37 °C, H: human, M: mouse
# Description: The incubation mixture (final volume 200 µL) contained: 125 µL of deionized water, 40 µL of Tris mix buffer, 10 µL of 20 mg protein/mL S9 fraction (final concentration 1 mg protein/mL), and 5 µL of the test compound working solution (final concentration 3 µM). The final concentrations of DMSO and acetonitrile were 0.03% and 1%, respectively. The mixture was pre-incubated at 37 °C for 5 min in a shaking water bath. The reaction was initiated by adding 20 µL of the combined cofactor solution (final concentrations: 1 mM NADPH, 0.5 mM UDPGA, 0.1 mM PAPS, 2.5 mM GSH). Control incubations were performed without the cofactor mixture (replaced with buffer) and at 0 min (quenched immediately after adding cofactors). Incubations were carried out at 37 °C for 0, 15, 30, and 60 min (for stability) or 60 min (for metabolite ID). Reactions were terminated by adding 200 µL of ice-cold acetonitrile containing IS (diclofenac).
# Metabolite identification was performed using samples generated from the in vitro liver S9 incubations (final substrate concentration 20 µM, 60 min incubation) and plasma samples from the in vivo IP administration study. Samples were analyzed using an Agilent 6530 Q-TOF LC-MS/MS system (Agilent Technologies Korea Ltd., Seoul, Republic of Korea). Data processing and metabolite identification were performed using Agilent MassHunter Metabolite ID software (ver. B.04.00), searching for expected biotransformations (e.g., oxidation, demethylation, glucuronidation, sulfation, GSH conjugation) and comparing MS/MS fragmentation patterns of metabolites with the parent drug.
# Qualitative analysis for metabolite identification was performed using the same LC system coupled to an Agilent 6530 Q-TOF mass spectrometer system (Agilent Technologies Korea Ltd., Seoul, Republic of Korea) with a dual AJS ESI source operating in positive ion mode. The chromatographic conditions were identical to those used for quantitative analysis.
# The ion source parameters for the mass spectrometer were set as follows: gas temperature 325 °C, gas flow 12 L/min, nebulizer pressure 35 psi, sheath gas temperature 350 °C, and sheath gas flow 10 L/min. Data were acquired in MS scan mode (m/z 100–1000) and targeted MS/MS or Auto MS/MS mode. Data acquisition and processing were performed using Agilent MassHunter Qualitative Analysis (ver. B.05.00) and Metabolite ID software (ver. B.04.00).
# To elucidate the metabolic pathways, metabolite identification studies were conducted using in vitro liver S9 fractions incubations (20 µM substrate) and in vivo plasma samples from mice administered an IP dose (200 µg/mouse). Metabolites were identified based on accurate mass measurements, isotopic patterns, and MS/MS fragmentation patterns compared to the parent compound using LC-Q-TOF MS/MS system (Agilent Technologies Ltd., Seoul, Republic of Korea).
# [6] = system: flavin-containing monooxygenase (FMO) in HLM; assay: FMO involvement: metabolic stability in control vs heat-inactivated human liver microsomes; type: in vitro ADME; settings: pre-incubated 45 °C for 5 min vs control, 60 min incubation, NADPH
# Description: (§5) To determine the potential involvement of flavin-containing monooxygenase (FMO), a parallel assay was conducted with HLM and MLM [31]. To selectively inactivate FMO, microsomes (20 mg protein/mL) were pre-incubated at 45 °C for 5 min. Non-inactivated microsomes served as the control. Subsequently, metabolic incubations were performed with both control and heat-inactivated microsomes at 37 °C for 60 min. The incubation procedure was identical to that described above for the S9 fractions, with the exception that NADPH was used as the sole cofactor.
# [7] = system: flavin-containing monooxygenase (FMO) in MLM; assay: FMO involvement: metabolic stability in control vs heat-inactivated mouse liver microsomes; type: in vitro ADME, male ICR mouse; settings: pre-incubated 45 °C for 5 min vs control, 60 min incubation, NADPH
# Description: as §5
structure (smiles),measurement,setting,value
"CNC(=C[N+](=O)[O-])NCCSCc1ccc(CN(C)C)o1 [Ranitidine, ranitidine]","fraction unbound at 4 h, 10 µM",[1],0.85 ± 0.006
same,"fraction unbound at 4 h, 10 µM",[2],0.888 ± 0.054
"Cc1cc(=O)n(-c2ccccc2)n1C [Antipyrine, antipyrine, reference compound]","fraction unbound at 4 h, 3 µM",[3],0.946 ± 0.026
same,"fraction unbound at 4 h, 3 µM",[4],0.937 ± 0.011
C[N+](C)([O-])CCn1c(=O)c2nc(-c3ccc(C(F)(F)F)cc3)oc2c2ccccc21 [KB-1517 M2],Species in whose liver S9 the metabolite was detected,[5]; KB-1517 20 µM,"H, M"
CNCCn1c(=O)c2nc(-c3ccc(C(F)(F)F)cc3)oc2c2ccccc21 [KB-1517 M1],Species in whose liver S9 the metabolite was detected,[5]; KB-1517 20 µM,"H, M"
OCCNc1nc2ccccc2c2oc(-c3ccc(C(F)(F)F)cc3)nc12 [KB-1518 M2],Species in whose liver S9 the metabolite was detected,[5]; KB-1518 20 µM,"H, M"
"CN(C)CCCOc1nn(Cc2ccccc2)c2ccccc12 [benzydamine, Benzydamine hydrochloride]",Effect of heat inactivation (FMO) on metabolism,[6],significantly inhibited the metabolism
same,Effect of heat inactivation (FMO) on metabolism,[7],significantly inhibited the metabolism
"CC(C)NCC(O)COc1cccc2ccccc12 (stereo not drawn) [Propranolol, propranolol]","fraction unbound at 4 h, 10 µM",[1],0.262 ± 0.026
same,"fraction unbound at 4 h, 10 µM",[2],0.247 ± 0.005
CN(CCO)c1nc2ccccc2c2oc(-c3ccc(C(F)(F)F)cc3)nc12 [KB-1518 M1],Species in whose liver S9 the metabolite was detected,[5]; KB-1518 20 µM,"H, M"
"CCC(C)n1ncn(-c2ccc(N3CCN(c4ccc(OCC5COC(Cn6cncn6)(c6ccc(Cl)cc6Cl)O5)cc4)CC3)cc2)c1=O (stereo not drawn) [Itraconazole, itraconazole, reference compound]","fraction unbound at 4 h, 3 µM",[3],0.028 ± 0.006
same,"fraction unbound at 4 h, 3 µM",[4],0.019 ± 0.002
C[N+](C)([O-])CCOc1nc2ccccc2c2oc(-c3ccc(C(F)(F)F)cc3)nc12 [KB-1518 M3],Species in whose liver S9 the metabolite was detected,[5]; KB-1518 20 µM,"H, M"

# Reference: publication PMC12473689, “Drug Metabolism and Pharmacokinetics of Oxazolo[4,5-c]quinoline Analogs as Novel Interleukin-33 Inhibitors” (Pharmaceutics, 2025)
